In the NIST ThermoML archive (doi:10.1021/je049943s):
Numbers after ± are expanded uncertainties.

Legend:
[1] = 101.33 kPa, Liquid
[2] = excess molar enthalpy (molar enthalpy of mixing); xn = mol fraction of the nth substance listed; settings: 308.15 K, 101.33 kPa, Liquid

CC(O)CO (stereo unspecified) [1,2-propanediol]
Settings | mass density [kg/m3]
[1], 308.15 K | 1026.15 ± 0.53

OCCc1ccccc1 [2-phenylethanol]
Settings | mass density [kg/m3]
[1], 308.15 K | 1008.68 ± 0.51

OCCc1ccccc1 [2-phenylethanol] + CC(O)CO
[2]
Settings | excess molar enthalpy [kcal/mol]
x2 = 0.0637 | 0.0251 ± 0.000765
x2 = 0.1198 | 0.0403 ± 0.001
x2 = 0.1695 | 0.0483 ± 0.00112
x2 = 0.2139 | 0.0548 ± 0.00124
x2 = 0.2858 | 0.0599 ± 0.00134
x2 = 0.3525 | 0.0608 ± 0.00134
x2 = 0.4495 | 0.0582 ± 0.00129
x2 = 0.5212 | 0.0576 ± 0.00129
x2 = 0.6201 | 0.0539 ± 0.00122
x2 = 0.7101 | 0.0509 ± 0.00117
x2 = 0.7656 | 0.0473 ± 0.00112
x2 = 0.8305 | 0.0397 ± 0.00098
x2 = 0.8672 | 0.0339 ± 0.000908
x2 = 0.9074 | 0.0266 ± 0.000789
x2 = 0.9289 | 0.0212 ± 0.000693
x2 = 0.9494 | 0.0158 ± 0.000621
x2 = 0.9751 | 0.00853 ± 0.000502

OCCc1ccccc1 [2-phenylethanol] + OCCO
[2]
Settings | excess molar enthalpy [kcal/mol]
x2 = 0.0823 | 0.0254 ± 0.000765
x2 = 0.1521 | 0.0386 ± 0.000956
x2 = 0.212 | 0.0456 ± 0.00108
x2 = 0.264 | 0.0486 ± 0.00112
x2 = 0.3498 | 0.0495 ± 0.00115
x2 = 0.4177 | 0.0478 ± 0.00112
x2 = 0.5183 | 0.0467 ± 0.0011
x2 = 0.5892 | 0.0446 ± 0.00108
x2 = 0.6827 | 0.0408 ± 0.001
x2 = 0.7635 | 0.036 ± 0.000932
x2 = 0.8115 | 0.0313 ± 0.00086
x2 = 0.8659 | 0.0257 ± 0.000765
x2 = 0.8959 | 0.0214 ± 0.000693
x2 = 0.9281 | 0.0168 ± 0.000621
x2 = 0.9451 | 0.0134 ± 0.000574
x2 = 0.9627 | 0.00989 ± 0.000526
x2 = 0.981 | 0.00507 ± 0.000454

OCCc1ccccc1 [2-phenylethanol] + OCCOCCO
[2]
Settings | excess molar enthalpy [kcal/mol]
x2 = 0.05 | -0.0263 ± 0.000789
x2 = 0.0952 | -0.0434 ± 0.00105
x2 = 0.1363 | -0.0541 ± 0.00122
x2 = 0.1738 | -0.0613 ± 0.00136
x2 = 0.2399 | -0.0675 ± 0.00146
x2 = 0.2961 | -0.0721 ± 0.00153
x2 = 0.3869 | -0.0735 ± 0.00155
x2 = 0.4569 | -0.0727 ± 0.00155
x2 = 0.5579 | -0.0712 ± 0.00153
x2 = 0.6544 | -0.0684 ± 0.00148
x2 = 0.7163 | -0.0652 ± 0.00141
x2 = 0.7911 | -0.0577 ± 0.00129
x2 = 0.8347 | -0.0503 ± 0.00117
x2 = 0.8834 | -0.0401 ± 0.00098
x2 = 0.9099 | -0.0355 ± 0.000932
x2 = 0.9381 | -0.0248 ± 0.000765
x2 = 0.968 | -0.0131 ± 0.000574

OCCc1ccccc1 [2-phenylethanol] + OCCOCCOCCO
[2]
Settings | excess molar enthalpy [kcal/mol]
x2 = 0.036 | -0.0244 ± 0.000741
x2 = 0.0695 | -0.0421 ± 0.00103
x2 = 0.1008 | -0.0542 ± 0.00122
x2 = 0.13 | -0.0622 ± 0.00136
x2 = 0.1832 | -0.0713 ± 0.00153
x2 = 0.2296 | -0.0755 ± 0.0016
x2 = 0.3096 | -0.079 ± 0.00165
x2 = 0.3741 | -0.0801 ± 0.00167
x2 = 0.4728 | -0.0805 ± 0.00167
x2 = 0.5737 | -0.0778 ± 0.00163
x2 = 0.6421 | -0.0755 ± 0.0016
x2 = 0.7346 | -0.0676 ± 0.00146
x2 = 0.782 | -0.06 ± 0.00134
x2 = 0.8433 | -0.0473 ± 0.00112
x2 = 0.8777 | -0.0396 ± 0.00098
x2 = 0.915 | -0.0282 ± 0.000813
x2 = 0.9556 | -0.0151 ± 0.000598

OCCc1ccccc1 [2-phenylethanol] + OCCOCCOCCOCCO
[2]
Settings | excess molar enthalpy [kcal/mol]
x2 = 0.0281 | -0.0289 ± 0.000813
x2 = 0.0546 | -0.0488 ± 0.00115
x2 = 0.0797 | -0.0614 ± 0.00136
x2 = 0.1036 | -0.0687 ± 0.00148
x2 = 0.1478 | -0.0782 ± 0.00165
x2 = 0.1878 | -0.0817 ± 0.0017
x2 = 0.2575 | -0.0832 ± 0.00172
x2 = 0.3161 | -0.0835 ± 0.00174
x2 = 0.4095 | -0.0859 ± 0.00177
x2 = 0.5099 | -0.0878 ± 0.00182
x2 = 0.5811 | -0.0845 ± 0.00174
x2 = 0.6754 | -0.08 ± 0.00167
x2 = 0.7351 | -0.0724 ± 0.00155
x2 = 0.8063 | -0.0606 ± 0.00134
x2 = 0.8473 | -0.0507 ± 0.00117
x2 = 0.8928 | -0.042 ± 0.00103
x2 = 0.9433 | -0.0258 ± 0.000765

OCCOCCO [diethylene glycol]
[1]
Settings | mass density [kg/m3]
298.15 K | 1112.38 ± 0.58
308.15 K | 1105.88 ± 0.58

OCCOCCOCCO [triethylene glycol]
[1]
Settings | mass density [kg/m3]
298.15 K | 1119.78 ± 0.59
308.15 K | 1112.61 ± 0.58
